In the SangsterLogP compilation one finds logP and logD data, which are given here for 14 compounds.

The nature of the first data set: method code SF, from PMID: 1610484.
Conditions: not given
One may read the logP as a log measure of how a compound divides between an organic and an aqueous phase. Regarding `CSCCNC(=O)CCn1cnc([N+](=O)[O-])n1`, the logP is -0.07.

Consider `CSCCNC(=O)Cn1cnc([N+](=O)[O-])n1`, for which the logP is -0.1.

On to `O=C(Cn1cnc([N+](=O)[O-])n1)NCCO`, for which the logP was -1.37.

Compound `COCCCNC(=O)C(F)(F)Cn1cnc([N+](=O)[O-])n1` had a logP of 0.01.

In the case of `O=C(NCCCO)C(F)(F)Cn1cnc([N+](=O)[O-])n1`, the logP is -0.63.

`CSCCCNC(=O)C(F)(F)Cn1cnc([N+](=O)[O-])n1` had a logP of 0.76.

With `COCCNC(=O)C(F)(F)Cn1cnc([N+](=O)[O-])n1`, the logP is -0.29.

Compound `COCCNC(=S)Cn1cnc([N+](=O)[O-])n1` registered a log partition coefficient (logP) of 0.25.

`CSCCCNC(=O)Cn1cnc([N+](=O)[O-])n1` gave a logP of 0.26.

`COCCCNC(=S)Cn1cnc([N+](=O)[O-])n1` came in with a logP of 0.63.

On to `COCCNC(=O)CCn1cnc([N+](=O)[O-])n1`, for which the logP is -0.65.

Take `CSCCNC(=O)C(F)(F)Cn1cnc([N+](=O)[O-])n1`: the log partition coefficient (logP) was found to be 0.4.

Staying with this data set, now noted: pH 7.4.
As a reminder, the logD is the decadic logarithm of the distribution of all forms, ionised or not, between an organic phase and buffer at a given pH. Low values mean a more hydrophilic compound, high ones a more lipophilic compound. In the case of `COCCCNC(=O)Cn1cnc([N+](=O)[O-])n1`, the logD was -0.51.

As for `COCCNC(=O)Cn1cnc([N+](=O)[O-])n1`, the logD was -0.77.
